# US20230293539A1, “MLL1-WDR5 PROTEIN-PROTEIN INTERACTION INHIBITOR COMPOUNDS AND USES THEREOF” (HUYABIO International, LLC, priority 2022, published 2023)
# Assay: Compound formulation stability assay
# Format: physicochemical
# Conditions: 10 mg/mL in 10% DMSO/10% solutol HS 15/80% water, 2-8° C.
# Procedure: Compound formulation stability assay: Test articles were formulated in 10% DMSO/10% solutol HS 15/80% water and stored at 4° C. Formulated compounds were analyzed by a HPLC-UV method for actual concentrations and % remaining on Day 1, 4 and 7 after formulation to determine the stability of the formulated test article. The HPLC system was equipped with Shimadzu LC-20 high-performance liquid chromatograph, SIL-20AC auto sampler, LC-20AB pump and SPD-M20A detector. A Waters XBridge C18 (4.6*100 mm) column was applied for the separation. […]
compound,measurement,setting,value
"Cc1c(F)c(N)cc(C(=O)Nc2cc(-n3cc(C(=O)N4CCN(C)CC4)nn3)c(F)cc2N2C[C@@H](C)N(C)[C@@H](C)C2)c1Cl [HYBI-084, 5-amino-2-chloro-4-fluoro-N-(4-fluoro-5-(4-(4-methylpiperazine-1-carbonyl)-1H-1,2,3-triazol-1-yl)-2-((3S,5R)-3,4,5-trimethylpiperazin-1-yl)phenyl)-3-methylbenzamide]",Accuracy % (Day 0),Day 0,92.8%
same,Formulation Appearance (Day 0),Day 0,clear solution
same,Remaining % (Day 0),Day 0,100%
same,Accuracy % (Day 1),Day 1,93.4%
same,Formulation Appearance (Day 1),Day 1,clear solution
same,Remaining % (Day 1),Day 1,101%
same,Accuracy % (Day 4),Day 4,92.9%
same,Formulation Appearance (Day 4),Day 4,clear solution
same,Remaining % (Day 4),Day 4,100%
same,Accuracy % (Day 7),Day 7,91.5%
same,Formulation Appearance (Day 7),Day 7,clear solution
same,Remaining % (Day 7),Day 7,98.7%
